From patent publication US9387231B2, “Compositions comprising a Brd4 antagonist and methods for the treatment of HIV” (THE CHILDREN'S HOSPITAL OF PHILADELPHIA, priority 2011, dated 2016)

How the values were obtained:
Format in all cases: cell-based
Primary CD4 T-cells = test: Cell death of HIV-infected primary CD4 T-cells (FSC/SSC); conditions: primary activated CD4 T-cells infected with NL43 or SG3, 0.1 μM, days 3-13
Protocol: (§1) Primary CD4 T-cells were activated with anti-CD3/28, then infected with HIV, NL43 or SG3, and cultured in the presence of JQ1(+) (1 μM or 0.1 μM) or media. At days 3, 6, 10 and 13 after infection, cell death was measured by percent of FSC/SSC (forward scatter/side scatter) as indicated in individual plots (FIGS. 8A and 8C). The expression of p24 in live cells was examined by flow cytometry and is shown as the percentage of p24+ cells (FIGS. 8B and 8D).
(§2) Of note, mean fluorescence of p24 was unchanged in the presence of the active inhibitor, indicating there was not a non-specific toxic drug effect and supporting the observation that BET antagonism inhibits HIV production at late time points of infection in primary activated CD4 T-cells.

HIV (NL43, SG3) = test: Viral production and p24Gag expression in HIV-infected CEMss LTR-GFP cells
HIV-1 NL43 = test: Viral integration in primary resting CD4 T-cells by Alu-PCR; conditions: for provirus/cell: NL43, 1 μM, T48 h, listed as JQ(+)
Protocol: To determine if JQ1(+) affects viral integration in primary resting CD4 T-cells, the cells were purified and infected with HIV-1 NL43 or mock control. The infected cells were then cultured in the presence of 1 μM of JQ1(+) or JQ1(−) for 48 hours. Cell pellets were collected at 0 hours and 48 hours after infection. DNA was isolated and the viral integration in resting CD4 T-cells was measured by Alu-PCR.

HIV-1 LTR promoter = test: Activation of the HIV LTR in CEMss LTR-GFP reporter cells (GFP by flow cytometry)
Protocol: CEMss LTR-GFP cells were infected with NL43 and cultured in the presence of the BET antagonists JQ1(+) (1 μM) or the control enantiomer JQ1(−). GFP expression in cells was examined by flow cytometry. A representative of three experiments is shown. FIG. 2B provides a graph showing GFP expression in cells when cultured with different amounts of JQ1, as determined by flow cytometry. 0.25 μM of JQ1(+) was sufficient to dramatically increase the expression of GFP in NL43 infected CEMss LTR-GFP cells. FIGS. 2C and 2D show percentage of GFP expression (FIG. 2C) and mean fluorescence of GFP (MFI; FIG. 2D) in CEMss LTR-GFP cells cultured in the presence of JQ1(+) or JQ1(−) (1 μM), and different amount of HIV-1 Tat. FIG. 2E provides dot plots of CEMss LTR-GFP cells were cultured with increasing amounts of HIV Tat (0, 8, 16 or 32 μg/ml) in the presence of JQ1(+) or JQ1(−) (1 μM) for 1 day. Non-underlined numbers indicate percentage of GFP and underlined numbers indicate mean fluorescence of GFP (MFI).
GFP expression was measured by flow cytometry. FIGS. 3B and 3C shown the percentage of cells positive for GFP (FIG. 3B) and the mean MFI of GFP (FIG. 3C) in latently infected cell lines, J-Lat clones 82, A72, A7, A2, and A1, at 16 hours after TNFα or PHA was added in the cultures in the presence of JQ1(+) or JQ1(−). […] GFP expression in cells was measured by flow cytometry and is indicated as percent of GFP+ cells in gated live cell populations. An average of 5 experiments is shown. * p<0.05, ** p<0.01, *** p<0.001. […] Average of 3 experiments is shown. * p<0.05. For FIG. 3F, J-Lat A2 and A72 cells were reactivated with TNFα (20 ng/ml) or HIV Tat protein (50 μg/ml) in the presence of JQ1(+) or JQ1(−) for 16-18 hours, and GFP expression in cells was measured by flow cytometry. One representative experiment is shown. In each dot plot, non-underlined numbers indicate percentage of GFP+ cells and underlined numbers indicate mean fluorescence of GFP (MFI).
BET antagonists also drive activation of the HIV LTR. Specifically, the effects of JQ1 on transcription from the HIV LTR were tested. CEMss LTR-GFP cells (a reporter cell line stably transfected with GFP under the control of the HIV-1 LTR promoter) were infected with NL43 and cultured in the presence of BET antagonists or controls. GFP expression was measured at days 0, 1, 2, 3, and 6 post-infection. GFP expression was higher in the presence of the BET inhibitor (JQ1) compared to controls (FIG. 2A). Further, by varying the amount of JQ1, it was determined that 0.25 μM of JQ1(+) was sufficient to dramatically increase Tat-driven HIV-1 transcription (FIG. 2B). CEMss LTR-GFP cells were also cultured in the presence of JQ1(+) or JQ1(−) (1 μM) and different amount of HIV-1 Tat (0-32 μg/ml). […] FIG. 2E provides dot plots of the experiments.
Next, the effect of JQ1 on activation of the HIV LTR was tested using a latently infected Jurkat-derived cell clone, J-Lat clone A2. GFP expression in J-Lat clone A2 is induced upon reactivation with tumor necrosis factor-alpha (TNFα) or phytohaemagglutinin (PHA).

[1] = tested on: HIV (NL43, SG3, BAL1 or BL2); test: HIV infection of primary activated CD4 T-cells (p24 by flow cytometry or ELISA)
Description: Primary CD4 T-cells were activated with anti-CD3/28, infected with NL43, SG3, BAL1, or BL2 (FIG. 1A) or NL43 (FIGS. 1B and 1C), and cultured in the presence of the BET antagonist JQ1(+) or the control enantiomer JQ1(−). FIG. 1A provides the expression of p24Gag in cells as determined by flow cytometry. FIGS. 1B and 1C show viral production as measured in culture supernatants by ELISA.
as §1
BET antagonists inhibit viral infection in primary activated CD4 T-cells. Specifically, the effect of the BET antagonist JQ1(+) on viral replication was tested in HIV-infected T-cells. Primary activated CD4 T-cells were infected with X4-tropic virus (NL43 or SG3) or R5-tropic virus (BAL1 or BL2) in the presence or absence of JQ1(+) (1 μM). Viral infection was measured by flow cytometry or ELISA at various days after infection.
as §2

Cc1sc2c(c1C)C(c1ccc(Cl)cc1)=N[C@@H](CC(=O)OC(C)(C)C)c1nnc(C)n1-2 [JQ1(+), tert-butyl 2-((6S)-4-(4-chlorophenyl)-2,3,9-trimethyl-6H-thieno[3,2-f][1,2,4]triazolo[4,3-a][1,4]diazepin-6-yl)acetate]
Cell death (Primary CD4 T-cells): did not cause cell death above control values | Relative number of Gag-expressing live GFP+ cells (HIV (NL43, SG3); CEMss LTR-GFP cells infected with SG3, day 5 post-infection, flow cytometry): significantly decreased | Production of p24 in supernatants (HIV (NL43, SG3); CEMss LTR-GFP cells, HIV NL4-3, 0.25 μM, day 6 after infection, ELISA): decreased below control values | Expression of p24Gag in the infected cells (ratio of p24+ in GFP+ population) (HIV (NL43, SG3); CEMss LTR-GFP cells, NL43, 1 μM, day 3 after infection): decreased | Viral production (p24Gag in supernatants, ELISA) (HIV (NL43, SG3); CEMss LTR-GFP cells, NL43, 1 μM, day 6 after infection): decreased | provirus/cell (HIV-1 NL43; Exp. 1, primary resting CD4 T-cells): 0.559 ± 0.005 provirus/cell | provirus/cell (HIV-1 NL43; Exp. 2, primary resting CD4 T-cells): 0.444 ± 0.120 provirus/cell | Viral integration (HIV-1 NL43; primary resting CD4 T-cells, 1 μM, 48 hours, Alu-PCR): does not significantly affect | GFP expression (HIV-1 LTR promoter; CEMss LTR-GFP cells infected with NL43, 1 μM, compared to controls, days 0-6): higher | TNFα-induced activation of the HIV LTR (HIV-1 LTR promoter; CEMss LTR-GFP cells, 20 ng/ml TNFα, 1 μM, 1 day, absence of Tat): promotes | Mean fluorescence intensities (MFI) of GFP (HIV-1 LTR promoter; CEMss LTR-GFP cells, 1 μM, with 8, 16 or 32 μg/ml HIV-1 Tat): dramatically enhanced | Amount sufficient to dramatically increase Tat-driven HIV-1 transcription (GFP expression) (HIV-1 LTR promoter; NL43 infected CEMss LTR-GFP cells): 0.25 µM | Viral infection at low concentration ([1]; primary CD4 T-cells, NL43, 0.1 μM): inhibition of viral infection was also observed | HIV infection (viral production, ELISA) ([1]; primary CD4 T-cells, NL43, days 3 and 6 after infection, p<0.05): significantly inhibited | Relative number of virus-expressing cells (percentage of p24+ cells) ([1]; primary activated CD4 T-cells, NL43 or SG3, 0.1 μM): still suppressed | Levels of infection ([1]; primary activated CD4 T-cells, X4-tropic (NL43, SG3) or R5-tropic (BAL1, BL2) virus, 1 μM, flow cytometry or ELISA, various days): decrease | Mean fluorescence of p24 ([1]; primary activated CD4 T-cells, in the presence of the active inhibitor): unchanged
